Laboratory results as given in ChEMBL document CHEMBL1153636, “The phosphoramidate ProTide approach greatly enhances the activity of beta-2'-C-methylguanosine against hepatitis C virus” (Bioorg Med Chem Lett, 2009).

What was measured:
[1] = Cytotoxicity against human Huh5-2 cells; type: cell-based, Huh-5-2
[2] = tested on: Hepatitis C virus; assay: Antiviral activity against HCV assessed as inhibition of viral replicon replication in human Huh5-2 cells; type: functional, organism-based, Hepacivirus hominis; settings: Huh-5-2
[3] = tested on: carboxypeptidase; assay: Stability in presence of carboxypeptidase assessed as parent ProTide compound remaining after 10 mins; type: ADME; settings: read-out: Stability
[4] = tested on: carboxypeptidase; assay: Stability in presence of carboxypeptidase assessed as parent ProTide compound remaining; type: ADME
[5] = Inhibition of HCV RNA-dependent RNA polymerase; design: species or system Hepacivirus hominis
[6] = tested on: Hepatitis C virus; assay: Antiviral activity against HCV by viral replicon assay; type: functional, organism-based, Hepacivirus hominis
[7] = tested on: carboxypeptidase; assay: Stability in presence of carboxypeptidase assessed as parent ProTide compound remaining after 13 hrs; type: ADME; settings: read-out: Stability

Row | SMILES | CC50 [1] | EC50 [2] | remaining at 10 min [3] | half-life [4] | IC50 [5] | EC50 [6] | remaining at 13 h [7]
1 | C[C@@]1(O)[C@H](O)[C@@H](CO)O[C@H]1n1cnc2c(N)ncnc21 | > 50 µM | 0.25 µM | – | – | – | – | –
2 | COC(=O)[C@H](C)NP(=O)(OC[C@H]1O[C@@H](n2cnc3c(=O)[nH]c(N)nc32)[C@](C)(O)[C@@H]1O)Oc1cccc2ccccc12 (some centres undefined) | > 50 µM | 0.23 µM | – | – | – | – | –
3 | C[C@H](NP(=O)(OC[C@H]1O[C@@H](n2cnc3c(N)ncnc32)[C@](C)(O)[C@@H]1O)Oc1cccc2ccccc12)C(=O)OCc1ccccc1 (some centres undefined) | > 50 µM | 0.27 µM | – | – | – | – | –
4 | C[C@H](NP(=O)(OC[C@H]1O[C@@H](n2cnc3c(N)ncnc32)[C@](C)(O)[C@@H]1O)Oc1cccc2ccccc12)C(=O)OC(C)(C)C (some centres undefined) | > 50 µM | 4.18 µM | – | – | – | – | –
5 | C[C@H](NP(=O)(OC[C@H]1O[C@@H](n2cnc3c(=O)[nH]c(N)nc32)[C@](C)(O)[C@@H]1O)Oc1cccc2ccccc12)C(=O)OCc1ccccc1 (some centres undefined) | > 50 µM | 0.12 µM | 7% | 0.05 h | – | – | –
6 | C[C@@]1(O)[C@H](O)[C@@H](CO)O[C@H]1n1cnc2c(=O)[nH]c(N)nc21 [2'-B-METHYL-GUANOSINE] | > 50 µM | 10.1 µM | – | – | 0.13 µM | 3.5 µM | –
7 | CCOC(=O)[C@H](C)NP(=O)(OC[C@H]1O[C@@H](n2cnc3c(N)ncnc32)[C@](C)(O)[C@@H]1O)Oc1cccc2ccccc12 (some centres undefined) | > 50 µM | 0.24 µM | – | – | – | – | –
8 | C[C@H](NP(=O)(OC[C@H]1O[C@@H](n2cnc3c(=O)[nH]c(N)nc32)[C@](C)(O)[C@@H]1O)Oc1cccc2ccccc12)C(=O)OC(C)(C)C (some centres undefined) | > 50 µM | 27 µM | – | 33 h | – | – | 24%
9 | CCOC(=O)[C@H](C)NP(=O)(OC[C@H]1O[C@@H](n2cnc3c(=O)[nH]c(N)nc32)[C@](C)(O)[C@@H]1O)Oc1cccc2ccccc12 (some centres undefined) | > 50 µM | 0.28 µM | – | – | – | – | –
